# Results: ChEMBL document CHEMBL3885861, “Open TG-GATES”
# Organism: Rattus norvegicus
# Assay: Open TG-GATES - Regimen: Daily Repeat
# Type: toxicity, organism-based, Sprague-Dawley
# Design: regimen Daily Repeat, gender Male, age 6 weeks
# Details: in vivo, po, route gavage; for TC / TG / TP / gamma-GTP / A/G / ALP / ALT / AST / BUN / CRE / Ca / Cl / GLC / IP / K / LDH / Na / PL / RALB: tissue Plasma; for APTT / Bas / Eos / Fbg / Hb / Ht / Lym / MCH / MCHC / MCV / Mono / Neu / PT / Plat / RBC / Ret / WBC: tissue Blood; for KIDNEY_L / KIDNEY_R / KIDNEY_TOTAL: tissue Kidney; for LIVER: tissue Liver
# [1] = 100 mg/kg, […], dose level Low, time 28 day
# [2] = 300 mg/kg, 72 h, dose level Middle, time 3 day
# [3] = 300 mg/kg, […], dose level Middle, time 7 day
# [4] = 300 mg/kg, […], dose level Middle, time 14 day
# [5] = 300 mg/kg, […], dose level Middle, time 28 day
smiles,measurement,setting,value
O=C(O)c1ccccc1Nc1ccccc1 [FENAMIC ACID],TC,[1],76.6 mg/dL
same,TG,[1],129.6 mg/dL
same,TP,[1],6.2 g/dL
same,gamma-GTP,[1],1 IU/L
same,TERMINAL_BW,[2],241.8 g
same,APTT,[2],15.8 s
same,Bas,[2],0.4%
same,Eos,[2],1%
same,Fbg,[2],293.6 mg/dL
same,Hb,[2],13.4 g/dL
same,Ht,[2],40.1%
same,Lym,[2],74.2%
same,MCH,[2],20.9 pg
same,MCHC,[2],33.4%
same,MCV,[2],62.8 fL
same,Mono,[2],2.8%
same,Neu,[2],21.8%
same,PT,[2],14 s
same,Plat,[2],137.1 x10_4/uL
same,RBC,[2],639.6 x10_4/ul
same,Ret,[2],6.8%
same,WBC,[2],91.3 x10_2/uL
same,KIDNEY_L,[2],1 g
same,KIDNEY_R,[2],1 g
same,KIDNEY_TOTAL,[2],1.9 g
same,LIVER,[2],12 g
same,A/G,[2],0.9
same,ALP,[2],1538.8 IU/L
same,ALT,[2],37.4 IU/L
same,AST,[2],64.8 IU/L
same,BUN,[2],14.2 mg/dL
same,CRE,[2],0.2 mg/dL
same,Ca,[2],11.6 mg/dL
same,Cl,[2],105.8 meq/L
same,GLC,[2],183 mg/dL
same,IP,[2],6.4 mg/dL
same,K,[2],4.3 meq/L
same,LDH,[2],119.8 IU/L
same,Na,[2],142.8 meq/L
same,PL,[2],156 mg/dL
same,RALB,[2],2.7 g/dL
same,TC,[2],82.4 mg/dL
same,TG,[2],99.4 mg/dL
same,TP,[2],5.7 g/dL
same,gamma-GTP,[2],1.6 IU/L
same,TERMINAL_BW,[3],275.7 g
same,TERMINAL_BW,[4],344.9 g
same,TERMINAL_BW,[5],435 g
same,APTT,[3],16.6 s
same,Bas,[3],0.6%
same,Eos,[3],1.2%
same,Fbg,[3],313 mg/dL
same,Hb,[3],13.6 g/dL
same,Ht,[3],40.4%
same,Lym,[3],80.6%
same,MCH,[3],20.8 pg
same,MCHC,[3],33.7%
same,MCV,[3],61.5 fL
same,Mono,[3],2.4%
same,Neu,[3],15.2%
same,PT,[3],13.9 s
same,Plat,[3],137.6 x10_4/uL
same,RBC,[3],656.8 x10_4/ul
same,Ret,[3],6.2%
same,WBC,[3],89.7 x10_2/uL
same,APTT,[4],15.8 s
same,Bas,[4],0.8%
same,Eos,[4],0.8%
same,Fbg,[4],296 mg/dL
same,Hb,[4],14.4 g/dL
same,Ht,[4],42.2%
same,Lym,[4],79.8%
same,MCH,[4],20.1 pg
same,MCHC,[4],34.2%
same,MCV,[4],58.6 fL
same,Mono,[4],2.2%
same,Neu,[4],16.4%
same,PT,[4],13.8 s
same,Plat,[4],131.5 x10_4/uL
same,RBC,[4],719.6 x10_4/ul
same,Ret,[4],4.7%
same,WBC,[4],104.7 x10_2/uL
same,APTT,[5],17.6 s
same,Bas,[5],0.4%
same,Eos,[5],1.4%
same,Fbg,[5],314.2 mg/dL
same,Hb,[5],14.8 g/dL
same,Ht,[5],42.7%
same,Lym,[5],79.8%
same,MCH,[5],18.8 pg
same,MCHC,[5],34.7%
same,MCV,[5],54.1 fL
same,Mono,[5],2.6%
same,Neu,[5],15.8%
same,PT,[5],14.1 s
same,Plat,[5],119.3 x10_4/uL
same,RBC,[5],789.8 x10_4/ul
same,Ret,[5],2.7%
same,WBC,[5],92.3 x10_2/uL
same,KIDNEY_L,[3],1.3 g
same,KIDNEY_R,[3],1.2 g
same,KIDNEY_TOTAL,[3],2.5 g
same,KIDNEY_L,[4],1.4 g
same,KIDNEY_R,[4],1.4 g
same,KIDNEY_TOTAL,[4],2.7 g
same,KIDNEY_L,[5],1.5 g
same,KIDNEY_R,[5],1.5 g
same,KIDNEY_TOTAL,[5],3 g
same,LIVER,[3],13.4 g
same,LIVER,[4],16.2 g
same,LIVER,[5],19 g
same,A/G,[3],0.9
same,ALP,[3],1312 IU/L
same,ALT,[3],36.6 IU/L
same,AST,[3],63.4 IU/L
same,BUN,[3],26.8 mg/dL
same,CRE,[3],0.3 mg/dL
same,Ca,[3],11.8 mg/dL
same,Cl,[3],103.8 meq/L
same,GLC,[3],185 mg/dL
same,IP,[3],7 mg/dL
same,K,[3],4.6 meq/L
same,LDH,[3],108 IU/L
same,Na,[3],143.6 meq/L
same,PL,[3],150.4 mg/dL
same,RALB,[3],2.8 g/dL
same,TC,[3],80.8 mg/dL
same,TG,[3],91.6 mg/dL
same,TP,[3],6 g/dL
same,gamma-GTP,[3],1.6 IU/L
same,A/G,[4],0.8
same,ALP,[4],1463.6 IU/L
same,ALT,[4],36.8 IU/L
same,AST,[4],58.4 IU/L
same,BUN,[4],15.8 mg/dL
same,CRE,[4],0.3 mg/dL
same,Ca,[4],11.3 mg/dL
same,Cl,[4],104 meq/L
same,GLC,[4],178 mg/dL
same,IP,[4],6.5 mg/dL
same,K,[4],4 meq/L
same,LDH,[4],102.2 IU/L
same,Na,[4],144.2 meq/L
same,PL,[4],160.8 mg/dL
same,RALB,[4],2.8 g/dL
same,TC,[4],80.8 mg/dL
same,TG,[4],117.2 mg/dL
same,TP,[4],6.2 g/dL
same,gamma-GTP,[4],1.2 IU/L
same,A/G,[5],0.8
same,ALP,[5],942.2 IU/L
same,ALT,[5],31 IU/L
same,AST,[5],53.2 IU/L
same,BUN,[5],15.6 mg/dL
same,CRE,[5],0.3 mg/dL
same,Ca,[5],11.3 mg/dL
same,Cl,[5],103.8 meq/L
same,GLC,[5],186.6 mg/dL
same,IP,[5],6.7 mg/dL
same,K,[5],4 meq/L
same,LDH,[5],107.6 IU/L
same,Na,[5],144.6 meq/L
same,PL,[5],161.8 mg/dL
same,RALB,[5],2.9 g/dL
same,TC,[5],82.2 mg/dL
same,TG,[5],100.8 mg/dL
